From publication PMC10657792, “Downstream Allosteric Modulation of NMDA Receptors by 3-Benzazepine Derivatives” (Molecular Neurobiology, 2023)
Values joined by “and” are separate entries in the source; they are usually repeats but may differ in a detail not shown here. Identical values can stand only once.

Experiments:
Format in all cases: cell-based
GluN1a wt/ GluN2B wt = GluN1a wt/ GluN2B wt (Rattus norvegicus, UniProt P35439+Q00960); test: TEVC recording of NMDAR currents in X. laevis oocytes, inhibition by compound
Sequence of GluN1a wt/ GluN2B wt (Q00960 27-1482, other chains not shown): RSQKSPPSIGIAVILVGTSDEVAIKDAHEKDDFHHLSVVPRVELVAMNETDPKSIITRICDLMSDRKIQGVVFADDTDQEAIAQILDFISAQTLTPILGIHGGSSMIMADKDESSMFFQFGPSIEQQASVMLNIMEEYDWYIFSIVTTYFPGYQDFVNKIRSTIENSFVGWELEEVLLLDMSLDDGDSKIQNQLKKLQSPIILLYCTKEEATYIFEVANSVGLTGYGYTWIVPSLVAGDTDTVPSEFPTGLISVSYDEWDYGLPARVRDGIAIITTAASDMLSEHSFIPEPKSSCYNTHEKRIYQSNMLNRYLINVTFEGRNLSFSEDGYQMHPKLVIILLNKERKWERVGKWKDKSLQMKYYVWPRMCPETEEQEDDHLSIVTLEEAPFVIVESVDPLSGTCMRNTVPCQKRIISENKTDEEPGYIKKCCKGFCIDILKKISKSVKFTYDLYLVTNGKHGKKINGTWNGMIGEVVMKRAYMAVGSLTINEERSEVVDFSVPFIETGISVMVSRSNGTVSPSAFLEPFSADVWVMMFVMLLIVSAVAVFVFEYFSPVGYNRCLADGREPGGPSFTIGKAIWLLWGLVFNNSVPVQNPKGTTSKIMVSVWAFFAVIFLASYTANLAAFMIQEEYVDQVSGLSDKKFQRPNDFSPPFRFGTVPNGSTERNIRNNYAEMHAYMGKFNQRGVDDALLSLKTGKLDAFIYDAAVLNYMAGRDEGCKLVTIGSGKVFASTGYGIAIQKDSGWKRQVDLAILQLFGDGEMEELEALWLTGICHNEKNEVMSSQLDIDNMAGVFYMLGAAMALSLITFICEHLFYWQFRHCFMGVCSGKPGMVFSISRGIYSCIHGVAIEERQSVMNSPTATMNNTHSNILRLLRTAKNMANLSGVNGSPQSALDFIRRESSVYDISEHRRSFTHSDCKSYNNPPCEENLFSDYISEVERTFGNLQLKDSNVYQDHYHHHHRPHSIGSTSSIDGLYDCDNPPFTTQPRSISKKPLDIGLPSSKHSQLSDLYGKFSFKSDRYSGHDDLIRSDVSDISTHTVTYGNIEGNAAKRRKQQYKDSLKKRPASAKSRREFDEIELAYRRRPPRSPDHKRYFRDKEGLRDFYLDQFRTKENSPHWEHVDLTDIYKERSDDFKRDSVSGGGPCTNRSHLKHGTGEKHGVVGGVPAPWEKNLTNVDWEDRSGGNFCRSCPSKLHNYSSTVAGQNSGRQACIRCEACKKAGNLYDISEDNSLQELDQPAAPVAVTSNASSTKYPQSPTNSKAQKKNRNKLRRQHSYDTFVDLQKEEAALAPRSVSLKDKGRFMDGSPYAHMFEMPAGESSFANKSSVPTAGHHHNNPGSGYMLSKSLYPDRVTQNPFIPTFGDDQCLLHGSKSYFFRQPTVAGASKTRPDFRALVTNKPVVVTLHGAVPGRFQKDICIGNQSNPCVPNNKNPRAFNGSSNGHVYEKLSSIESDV
Protocol: (§1) The NMDAR was expressed in stage V and VI oocytes originated from X. laevis. Oocytes were provided by Ecocyte Bioscience (Dortmund, Germany), and equimolar amounts of wild-type and mutated GluN1 and GluN2B cRNA were injected (0.8 ng each). The oocytes were incubated in Barth’s solution, containing (mmol l^−1): 88 NaCl, 1 KCl, 0.4 CaCl2, 0.33 Ca(NO3)2, 0.6 MgSO4, 5 TRIS–HCl, 2.4 NaHCO3, supplemented with 80 mg l^−1 theophylline, 63 mg l^−1 benzylpenicillin, 40 mg l^−1 streptomycin, and 100 mg l^−1 gentamycin and maintained at 18 °C until usage. After injection, the oocytes were incubated for 5 days at 18 °C. Subsequently, the activity of the expressed NMDARs in the oocytes was recorded by two-electrode voltage clamp (TEVC).
(§2) The compounds were retrieved as 10 mM stock solutions in DMSO and were subsequently diluted with agonist solution and adjusted to 0.1% DMSO concentration. Inhibition of each compound was measured via TEVC in X. laevis oocytes at room temperature using a Turbo Tec 10CX amplifier (NPI electronic, Tamm, Germany), NI USB 6221 DA/AD Interface (National Instruments, Austin, USA), and GePulse Software (Dr. Michael Pusch, Genova, Italy). Ba^2+-Ringer, consisting of 10 mM HEPES, 90 mM NaCl, 1 mM KCl, and 1.5 mM BaCl2, adjusted to pH 7.4, was used for TEVC measurements. Agonist solution containing 10 µM glycine and 10 µM (S)-glutamate was prepared in Ba^2+-Ringer, and the measurements were performed at a holding potential of − 70 mV, using electrodes with a glass capillary filled with 3 M KCl and a resistance between 0.5 and 1.5 MΩ. The compounds were tested by applying ascending concentrations, ranging from 1 to 30,000 nM, in at least six oocytes. Example traces for all recorded conditions can be found in Supplementary Figs. S2–S9.
(§3) TEVC data were analyzed using Ana (Dr. Michael Pusch, Genova, Italy), and statistics were performed using OriginPro 2020 (OriginLab Corporation, Northampton, USA). The inhibitory effect of each compound is calculated using the following equation: inhibition=1-Ic-Ih/Ia-Ih where Ih describes the current in the absence of agonists; Ia represents the steady-state current in the presence of the agonists; and Ic is defined as the steady-state after binding of agonist and compound. All dose response curves are fitted to the following logistic equation: y=A1-A2/1+x/x0^p+A2 where A1 describes the minimal inhibition of a compound and was set to 0; A2 represents the maximal inhibition of a compound; p is the slope of the curve; x0 is defined as the concentration at half-maximal inhibition; and x is the tested concentration. Data were statistically analyzed by one-way ANOVA and Tukey post-hoc mean comparison test in OriginPro 2020 (OriginLab Corporation, Northampton, USA). p values are indicated by * for p < 0.05, ** for p < 0.01, and *** for p < 0.001.

GluN1b wt/ GluN2B wt [1] = target: GluN1b wt/ GluN2B wt (Rattus norvegicus, UniProt P35439+Q00960); test: as above
Sequence of GluN1b wt/ GluN2B wt (Rattus norvegicus, UniProt P35439+Q00960) (Q00960 27-1482, other chains not shown): as above
Protocol: as §1, §2, §3

GluN1b wt/ GluN2B wt [2] = test: as above; details: X. laevis oocytes; higher for GluN1-1b
Protocol: as §1, §2, §3

GluN1a wt/ GluN2B Q110A = GluN1a wt/ GluN2B Q110A (Rattus norvegicus, UniProt P35439+Q00960, Q110A); test: TEVC recording in X. laevis oocytes, GluN2B mutant screening; details: fitted curve
Sequence of GluN1a wt/ GluN2B Q110A (Q00960 27-1482 Q110A, other chains not shown): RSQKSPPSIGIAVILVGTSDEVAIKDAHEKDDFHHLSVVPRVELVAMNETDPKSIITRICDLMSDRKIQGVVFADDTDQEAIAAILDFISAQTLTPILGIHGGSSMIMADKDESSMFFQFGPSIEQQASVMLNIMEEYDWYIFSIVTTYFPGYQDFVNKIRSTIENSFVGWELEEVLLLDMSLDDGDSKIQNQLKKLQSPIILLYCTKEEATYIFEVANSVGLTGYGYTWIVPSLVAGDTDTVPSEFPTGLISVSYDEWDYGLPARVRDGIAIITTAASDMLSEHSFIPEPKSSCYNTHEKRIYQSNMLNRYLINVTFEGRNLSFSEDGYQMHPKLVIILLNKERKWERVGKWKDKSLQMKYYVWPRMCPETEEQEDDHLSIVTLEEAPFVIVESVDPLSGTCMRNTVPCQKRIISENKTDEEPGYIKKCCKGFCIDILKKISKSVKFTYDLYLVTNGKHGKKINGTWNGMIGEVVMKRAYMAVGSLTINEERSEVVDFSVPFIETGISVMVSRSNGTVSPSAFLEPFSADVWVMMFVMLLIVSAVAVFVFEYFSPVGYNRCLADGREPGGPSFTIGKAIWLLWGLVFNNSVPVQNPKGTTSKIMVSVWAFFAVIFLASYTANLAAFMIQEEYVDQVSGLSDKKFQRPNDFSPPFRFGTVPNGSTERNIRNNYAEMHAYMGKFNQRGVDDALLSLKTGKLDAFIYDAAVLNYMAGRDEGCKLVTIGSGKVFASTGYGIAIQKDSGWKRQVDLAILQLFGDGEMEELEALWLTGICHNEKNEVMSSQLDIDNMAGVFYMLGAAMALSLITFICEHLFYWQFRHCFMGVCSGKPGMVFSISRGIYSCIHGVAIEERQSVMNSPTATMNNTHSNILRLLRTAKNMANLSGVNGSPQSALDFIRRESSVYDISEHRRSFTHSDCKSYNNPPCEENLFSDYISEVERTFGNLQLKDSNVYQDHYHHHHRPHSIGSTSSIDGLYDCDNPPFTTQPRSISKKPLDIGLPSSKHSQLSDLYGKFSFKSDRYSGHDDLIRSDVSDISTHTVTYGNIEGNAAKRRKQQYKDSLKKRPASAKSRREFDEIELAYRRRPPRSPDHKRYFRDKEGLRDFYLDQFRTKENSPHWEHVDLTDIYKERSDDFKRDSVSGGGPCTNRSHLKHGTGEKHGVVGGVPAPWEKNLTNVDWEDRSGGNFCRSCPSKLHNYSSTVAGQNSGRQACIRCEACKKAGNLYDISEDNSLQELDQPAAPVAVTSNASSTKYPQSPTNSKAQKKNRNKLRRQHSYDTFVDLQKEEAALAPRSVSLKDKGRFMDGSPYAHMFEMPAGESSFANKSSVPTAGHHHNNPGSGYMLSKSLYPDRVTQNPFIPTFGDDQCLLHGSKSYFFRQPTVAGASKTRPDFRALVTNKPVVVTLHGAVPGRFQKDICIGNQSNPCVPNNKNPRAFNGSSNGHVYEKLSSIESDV

GluN1-1a/GluN2B = target: T1, GluN1-1a/GluN2B (Rattus norvegicus, UniProt P35439+Q00960); test: Single-channel patch clamp recordings (cell-attached) in CHO cells: open time, open channel probability; details: 1 µM compound, without exon 5
T1 construct: eGFP; DsRed2 (C); expressed in transfected cells; host or cells: CHO cells (constructs a gift from Prof. Hollmann, Bochum)
Protocol: (§4) Chinese hamster ovary (CHO) cells were co-transfected with GluN1-1a eGFP and GluN2B pDsRed2-N1 or GluN1-1b eGFP and GluN2B pDsRed2-N1. The constructs were a generous gift from Prof. Hollmann (Bochum, Germany). GluN1-1b eGFP was obtained by subcloning of GluN1-1b in eGFP using BssHII and BtrI. Single-channel patch clamp recordings were performed at room temperature using an Axopatch 200B amplifier (Molecular Devices, USA). The patch clamp experiments on cultured CHO cells were done using Clampex 10.7 software (Molecular Devices, USA). Single-channel recordings were performed in the cell-attached configuration. Borosilicate glass pipettes with a resistance of 2–3 MΩ were backfilled with internal solution, consisting of 125 mM NaCl, 3 mM KCl, 1.25 mM NaH2PO4, 0.85 mM CaCl2, and 20 mM HEPES, 100 nM (S)-glutamate, and 20 µM glycine, adjusted to pH 7.4. During the recordings, the cells were continuously flushed with external solution, consisting of 141 mM potassium gluconate, 2.5 mM NaCl, 11 mM EGTA, and 10 mM HEPES, adjusted to pH 7.4 by KOH. The antagonist solution was prepared by adding 1 µM (R)-OF-NB1. All solutions were adjusted to a DMSO concentration of 0.1%. NMDA currents were measured by clamping GluN1-1a/GluN2B or GluN1-1b/GluN2B wild-type expressing CHO cells at − 70 mV. […] Data analysis was performed and evaluated using Clampfit 10.7 (Molecular Devices, USA).

GluN1-1b/GluN2B = target: T2, GluN1-1b/GluN2B (Rattus norvegicus, UniProt P35439+Q00960); test: as above; details: 1 µM compound, exon 5 present
T2 construct: eGFP; DsRed2 (C); expressed in transfected cells; host or cells: CHO cells
Protocol: as §4

[3] = oocytes, 10 µM glycine + 10 µM (S)-glutamate, -70 mV, fitted curve

inhibition at 10 µM (GluN1a wt/ GluN2B wt; GluN1-1a/ GluN2B, compound concentration 10 μM, single oocytes): 88.1% | inhibition at 30 µM (GluN1a wt/ GluN2B wt; GluN1-1a/ GluN2B, compound concentration 30 μM, single oocytes): 91.8% | antagonist concentration at which oocytes were already inhibited (GluN1a wt/ GluN2B wt; TEVC example traces): 0.001 µM | Hill coefficient (GluN1a wt/ GluN2B wt; fitted curve): 0.9 | IC50 (GluN1a wt/ GluN2B wt; [3]): 97 nM | inhibition at 1 µM (GluN1b wt/ GluN2B wt [1]; GluN1-1b, compound 1000 nM, single oocyte): 72.1% | inhibition at 10 µM (GluN1b wt/ GluN2B wt [1]; GluN1-1b, compound 10000 nM, single oocyte): 82.7% | inhibition at 30 µM (GluN1b wt/ GluN2B wt [1]; GluN1-1b, compound 30000 nM, single oocyte): 84.9% | inhibition at 30 µM (GluN1b wt/ GluN2B wt [1]; GluN1-1b/ GluN2B, compound concentration 30 μM, single oocytes): 86.1% | antagonist concentration at which oocytes were inhibited (GluN1b wt/ GluN2B wt [1]; TEVC example traces): ~ 1 µM | A2 (level of maximal inhibition) (GluN1b wt/ GluN2B wt [1]; fitted curve): 84.8% | Hill coefficient (GluN1b wt/ GluN2B wt [1]; fitted curve): 6.2 | IC50 (GluN1b wt/ GluN2B wt [1]; [3]): 675 nM | IC50 of splice variant containing exon 5 (GluN1-1b) relative to IC50 of GluN1-1a (GluN1b wt/ GluN2B wt [2]): sevenfold | IC50 (GluN1a wt/ GluN2B Q110A; agonists 10 µM glycine + 10 µM (S)-glutamate): 210 nM | Hill coefficient (GluN1a wt/ GluN2B Q110A): 5.4
Structure (SMILES): Oc1ccc2c(c1)CCN(CCCCc1ccccc1F)C[C@@H]2O [(R)-OF-NB1]
inhibition (%) (GluN1b wt/ GluN2B wt [1]; GluN1-1b, compound 10 nM, single oocyte, 0.01 µM): -3.681% and 0.325% and 2.192% and 0.884% and -0.428% and 3.985% and 0.078% and 0.089% | inhibition (%) (GluN1b wt/ GluN2B wt [1]; GluN1-1b/ GluN2B, compound concentration 0.001 μM, single oocytes, 0.001 µM): 0.0934% and -0.03337% and 1.1426% and -0.02965% and -0.02382% and 0.3791% and 0.2758% | inhibition (%) (GluN1b wt/ GluN2B wt [1]; GluN1-1b/ GluN2B, compound concentration 0.01 μM, single oocytes, 0.01 µM): -0.2599% and -0.1168% and -0.1502% and 0.03902% and 1.645% and -0.1483% and 0.439% and 0.2911% | effect on open time of NMDAR (GluN1-1a/GluN2B): did not result in a significant reduction | effect on open time of NMDAR (GluN1-1b/GluN2B): did not result in a significant reduction
